The record followed here is patent publication US20240270722A1, “POLO LIKE KINASE 4 INHIBITORS” (ORIC Pharmaceuticals, Inc., priority 2021, published 2024).

For orientation: pIC50 means the IC50 on a negative log10 scale, so that one unit is a factor of ten.

pIC50: −log10 of the molar value.

The target in experiment [1] is T1, human recombinant Aurora A (Homo sapiens, UniProt O14965).
T1 construct: purchased ThermoFisher PR5935A
T1 sequence (O14965 1-403): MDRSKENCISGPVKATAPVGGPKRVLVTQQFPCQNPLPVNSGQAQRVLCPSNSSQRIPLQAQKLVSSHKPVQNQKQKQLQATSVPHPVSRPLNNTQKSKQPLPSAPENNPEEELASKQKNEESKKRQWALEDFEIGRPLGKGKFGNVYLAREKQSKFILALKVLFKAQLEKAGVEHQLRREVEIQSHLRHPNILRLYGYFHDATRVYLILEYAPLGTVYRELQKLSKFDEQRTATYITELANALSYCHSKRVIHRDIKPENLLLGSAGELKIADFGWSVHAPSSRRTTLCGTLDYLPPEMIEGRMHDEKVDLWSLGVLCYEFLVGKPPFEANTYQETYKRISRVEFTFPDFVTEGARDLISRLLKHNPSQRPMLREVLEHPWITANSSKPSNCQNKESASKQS
Description: Aurora A Kinase Biochemical Assay (ADP-Glo). The following applies: selectivity ratio Aurora A vs PLK4. As for the experimental part:
(§1) Activity of human recombinant Aurora A (ThermoFisher, cat #PR5935A) was measured by quantification of adenosine diphosphate (ADP) using the ADP-Glo Kinase Assay Kit (Promega, cat #V9102). […] 5 μL of 5.0 nM Aurora A in assay buffer (50 mM HEPES, pH 7.5, 0.01% Brij-35, 0.01% BSA, 10 mM MgCl2, 1 mM EGTA, 1 mM DTT) was added to the plates. Test compounds and Aurora A were incubated for 15 minutes at room temperature (RT). […] Reactions were stopped and the remaining ATP depleted by adding 10 uL of ADP-Glo reagent (Promega, cat #V912B) and incubating for 40 minutes at RT. The simultaneous conversion of the remaining ADP to ATP and measurement of the newly synthesized ATP was achieved by addition of 20 μL Kinase Detection reagent (Promega, cat #V914B), incubation for 30 min at RT, and luminescence detection using the EnVision plate reader (PerkinElmer). […] The IC50 values reported in Table 2 were determined using four parameter non-linear regression curve fit.

Experiment [2] has as its target T2, human recombinant Aurora B (Homo sapiens, UniProt Q96GD4).
T2 construct: purchased ThermoFisher PR9210B
The experiment is described as follows: Aurora B Kinase Biochemical Assay (ADP-Glo). The note with it: selectivity ratio Aurora B vs PLK4. As for the experimental part: as §1, with “Aurora B” for “Aurora A”, “cat #PR9210B)” for “cat #PR5935A)”, “of 20” for “of 5.0”
(In general: ADP-Glo turns the ADP formed in a reaction into a luminescent signal.)

Experiment [3] deals with T3, human recombinant PLK4 (Homo sapiens, UniProt O00444).
T3 construct: purchased ThermoFisher 4PV6396
T3 sequence (O00444 1-970): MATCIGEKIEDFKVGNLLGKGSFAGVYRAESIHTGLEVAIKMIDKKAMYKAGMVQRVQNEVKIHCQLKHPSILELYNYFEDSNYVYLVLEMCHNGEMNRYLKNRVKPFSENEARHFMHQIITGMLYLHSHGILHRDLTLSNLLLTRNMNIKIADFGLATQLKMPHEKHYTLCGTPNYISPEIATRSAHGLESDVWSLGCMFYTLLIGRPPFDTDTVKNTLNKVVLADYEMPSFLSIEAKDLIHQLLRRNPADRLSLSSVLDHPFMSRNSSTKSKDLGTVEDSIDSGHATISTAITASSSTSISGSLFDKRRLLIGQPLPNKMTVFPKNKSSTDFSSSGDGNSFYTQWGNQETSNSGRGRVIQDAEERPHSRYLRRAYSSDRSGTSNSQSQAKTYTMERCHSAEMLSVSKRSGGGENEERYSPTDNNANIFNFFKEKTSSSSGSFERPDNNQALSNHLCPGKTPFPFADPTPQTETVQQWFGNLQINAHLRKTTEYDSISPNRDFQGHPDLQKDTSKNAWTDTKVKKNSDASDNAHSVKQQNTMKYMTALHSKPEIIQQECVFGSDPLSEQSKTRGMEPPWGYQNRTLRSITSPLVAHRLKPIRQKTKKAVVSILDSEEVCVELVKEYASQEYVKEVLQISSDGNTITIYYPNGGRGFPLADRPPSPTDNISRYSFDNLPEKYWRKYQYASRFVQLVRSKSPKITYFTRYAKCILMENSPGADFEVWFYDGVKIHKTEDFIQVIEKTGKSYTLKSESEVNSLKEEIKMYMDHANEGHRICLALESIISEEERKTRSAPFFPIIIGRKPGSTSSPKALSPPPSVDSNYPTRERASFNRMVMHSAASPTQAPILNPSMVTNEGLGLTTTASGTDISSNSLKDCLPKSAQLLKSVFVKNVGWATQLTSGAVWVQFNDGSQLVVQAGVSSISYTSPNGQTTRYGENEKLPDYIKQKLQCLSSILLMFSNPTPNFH
Description: PLK4 Biochemical Assay (ADP-Glo). The procedure: 5 μL of 1.0 nM PLK4 protein in assay buffer (50 mM HEPES, pH 7.5, 0.01% Brij-35, 0.01% BSA, 10 mM MgCl2, 1 mM EGTA, 1 mM DTT) was added to the plates. Test compounds and PLK4 were incubated for 15 minutes at room temperature (RT). […] The IC50 values reported in Table 2 were determined using four parameter non-linear regression curve fit.

T2 sequence (Q96GD4 whole entry): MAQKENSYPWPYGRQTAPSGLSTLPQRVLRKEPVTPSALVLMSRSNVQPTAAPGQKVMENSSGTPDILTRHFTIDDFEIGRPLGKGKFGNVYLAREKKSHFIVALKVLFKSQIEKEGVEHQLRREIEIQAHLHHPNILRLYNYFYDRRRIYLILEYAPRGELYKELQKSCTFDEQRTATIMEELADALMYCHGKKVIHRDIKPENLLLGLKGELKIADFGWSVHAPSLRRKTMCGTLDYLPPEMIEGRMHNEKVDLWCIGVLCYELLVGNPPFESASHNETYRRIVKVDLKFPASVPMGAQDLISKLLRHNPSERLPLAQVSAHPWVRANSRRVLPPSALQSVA

With `COc1cnc(C)nc1Nc1n[nH]c2cc([C@@H]3C[C@@]34C(=O)Nc3ccc(C(F)(F)F)cc34)ccc12` [Example 137, (1R,2S)-2-{3-[(5-methoxy-2-methylpyrimidin-4-yl)amino]-1H-indazol-6-yl}-5′-(trifluoromethyl)spiro[cyclopropane-1,3′-indol]-2′(1′H)-one], the “[Aurora A IC50 (nM)]/[PLK4 IC50 (nM)]” value in experiment [1] is 62. Moreover, in experiment [2], the “[Aurora B IC50 (nM)]/[PLK4 IC50 (nM)]” value was 72. On to `COc1ccc2c(c1)[C@]1(C[C@H]1c1ccc3c(Nc4nccc5c4OC[C@H]5CO)n[nH]c3c1)C(=O)N2` (single isomer, unassigned) [Example 34], for which the “[Aurora A IC50 (nM)]/[PLK4 IC50 (nM)]” value in experiment [1] stood at 893.3126. For the same compound, the “[Aurora B IC50 (nM)]/[PLK4 IC50 (nM)]” value in experiment [2] is listed as 19.96. `COc1ccc2c(c1)[C@]1(C[C@H]1c1ccc3c(Nc4cc(OC)c(S(N)(=O)=O)cc4OC)n[nH]c3c1)C(=O)N2` [Example 212, 2,5-Dimethoxy-4-({6-[(1R,2S)-5′-methoxy-2′-oxo-1′,2′-dihydrospiro[cyclopropane-1,3′-indol]-2-yl]-1H-indazol-3-yl}amino)benzene-1-sulfonamide]: the “[Aurora B IC50 (nM)]/[PLK4 IC50 (nM)]” value in experiment [2] is listed as 280.

Consider `COc1cnc(C)nc1Nc1n[nH]c2cc([C@@H]3C[C@@]34C(=O)Nc3ccc(OC(F)(F)F)cc34)ccc12` [Example 138, (1R,2S)-2-{3-[(5-methoxy-2-methylpyrimidin-4-yl)amino]-1H-indazol-6-yl}-5′-(trifluoromethoxy)spiro[cyclopropane-1,3′-indol]-2′(1′H)-one], for which, in experiment [1], the “[Aurora A IC50 (nM)]/[PLK4 IC50 (nM)]” value came to 70. Besides, in experiment [2], the “[Aurora B IC50 (nM)]/[PLK4 IC50 (nM)]” value is on record as 36. For `COc1ccc2c(c1)[C@]1(C[C@H]1c1ccc3c(Nc4nn(C)cc4OC)n[nH]c3c1)C(=O)N2.O=C(O)C(F)(F)F` [Example 79, (1R,2S)-5′-methoxy-2-{3-[(4-methoxy-1-methyl-1H-pyrazol-3-yl)amino]-1H-indazol-6-yl}spiro[cyclopropane-1,3′-indol]-2′(1′H)-one], the “[Aurora A IC50 (nM)]/[PLK4 IC50 (nM)]” value in experiment [1] came to 210.5378. For the same compound, the “[Aurora B IC50 (nM)]/[PLK4 IC50 (nM)]” value in experiment [2] is reported as 6.986. In the same order, the values of `COc1cnc(C)nc1Nc1n[nH]c2cc([C@@H]3C[C@]34C(=O)Nc3ccc(OC(F)(F)F)cc34)ccc12` [Example 139, (1S,2S)-2-{3-[(5-methoxy-2-methylpyrimidin-4-yl)amino]-1H-indazol-6-yl}-5′-(trifluoromethoxy)spiro[cyclopropane-1,3′-indol]-2′(1′H)-one] are 7.4 and 9.6. For `COc1ccc2c(c1)[C@]1(C[C@H]1c1ccc3c(Nc4ncc(P(C)(C)=O)cc4OC)n[nH]c3c1)C(=O)N2` [Example 225, (1R,2S)-2-(3-{[5-(dimethylphosphoryl)-3-methoxypyridin-2-yl]amino}-1H-indazol-6-yl)-5′-methoxyspiro[cyclopropane-1,3′-indol]-2′(1′H)-one], the pIC50 in experiment [3] is 8.21. Further, the “[Aurora A IC50 (nM)]/[PLK4 IC50 (nM)]” value in experiment [1] came to 1884.6028. Further, in experiment [2], the “[Aurora B IC50 (nM)]/[PLK4 IC50 (nM)]” value came out at 381.4972.

With `COc1ccc2c(c1)[C@]1(C[C@H]1c1ccc3c(Nc4nccc5c4OC[C@@H]5CO)n[nH]c3c1)C(=O)N2` (single isomer, unassigned) [Example 33], in experiment [1], the “[Aurora A IC50 (nM)]/[PLK4 IC50 (nM)]” value was 355.9465. In addition, in experiment [2], the “[Aurora B IC50 (nM)]/[PLK4 IC50 (nM)]” value is recorded as 8.474. Turning to `CCOc1cc(S(=O)(=O)NC)cnc1Nc1n[nH]c2cc([C@@H]3C[C@@]34C(=O)Nc3ccc(OC)cc34)ccc12` [Example 275, 5-ethoxy-6-({6-[(1R,2S)-5′-methoxy-2′-oxo-1′,2′-dihydrospiro[cyclopropane-1,3′-indol]-2-yl]-1H-indazol-3-yl}amino)-N-methylpyridine-3-sulfonamide], the “[Aurora B IC50 (nM)]/[PLK4 IC50 (nM)]” value in experiment [2] is given as 230. As for `COc1ccc2c(c1)[C@]1(C[C@H]1c1ccc3c(Nc4ncnc(N5CCOCC5)c4OC(F)F)n[nH]c3c1)C(=O)N2` [Example 109, (1R,2S)-2-(3-{[5-(difluoromethoxy)-6-(morpholin-4-yl)pyrimidin-4-yl]amino}-1H-indazol-6-yl)-5′-methoxyspiro[cyclopropane-1,3′-indol]-2′(1′H)-one], the “[Aurora A IC50 (nM)]/[PLK4 IC50 (nM)]” value in experiment [1] is 50000.
